Measured values taken from patent EP1360959A1, “Use of 8-prenylflavanones for anti-angiogenesis therapy and for fibrinolytic therapy” (Schering Aktiengesellschaft, priority 2002, dated 2003).
Read-outs that look alike come from different tables or passages of the source.

Legend:
Assay type in all cases: cell-based, Bovine
[1] = test system: BME cells; assay: In vitro angiogenesis assay (invasion of three-dimensional collagen gels)
Description: bFGF and VEGF induce BME and BAE cells to invade three-dimensional collagen gels, and this is accompanied by the formation of capillary like tubular structures (Montesano et al., Proc. Natl. Acad. Sci. USA 83: 7297-7301, 1986; Pepper et al., Biochem. Biophys. Res. Comm. 189: 824-831, 1992; Pepper et al., Exp. Cell Res. 204: 356-363, 1993, Pepper et al., J. Cell Sci. 108: 73-83, 1995). In addition, bFGF and VEGF induce a synergistic invasive response in BME and BAE cells (Pepper et al., 1992, Biochem. Biophys. Res. Commun. 189: 824-831; Pepper et al 1995, J. Cell Sci. 108: 73-83).
Three-dimensional collagen gels were prepared as described (Montesano et al., Cell 42: 469-477, 1985): 8 volumes of a solution of type I collagen from rat tail tendons (approximately 1.5mg/ml) were mixed with 1 volume of 10x minimal essential medium and 1 volume of sodium bicarbonate (11.76mg/ml) on ice, dispensed into 18mm tissue culture wells, and allowed to gel at 37 °C for 10 minutes. […] Invasion was quantitated by determining the total additive length of all cellular structures which had penetrated beneath the surface monolayer either as apparently single cells or in the form of cell cords (Pepper et al., Biochem. Biophys. Res. Comm. 189: 824-831, 1992). Results are expressed as the mean total additive sprout length in µm ± s.e.m., and are from three separate experiments per condition. […]

[2] = test system: BME cells; assay: 5 day proliferation assay; conditions: Bos taurus; for inhibition at 30 µM: maximal inhibitory effect, read-out: % inhibition of BME cell proliferation
Description: BME cells were seeded into gelatin-coated wells of 24 well plates at 10'000 cells per well in α-MEM supplemented with 5% DCS. 24 hours later, fresh medium was added together with 8-Prenylnaringenin at the indicated concentrations or TGF-β1 (1ng/ml), and bFGF (10ng/ml) was added to half the wells. 2 days later, medium and compounds were renewed, and after a further 3 days (i.e. 5 day assay), cells were trypsinized and counted in a FACScan Analyzer. Results are shown as % inhibition calculated from the mean of duplicate wells.
8-Prenylnaringenin reduces endothelial cell number in a 5 day proliferation assay. BME cells were seeded into 24 well plates at 10'000 cells per well in medium containing 5% DCS. 24 hours later, cells were treated with 8-Prenylnaringenin at the indicated concentrations or with TGF-β1 (1ng/ml), and bFGF (10ng/ml) was added to half the wells. Results are shown as % inhibition calculated from the mean of duplicate wells.

[3] = test system: uPA; assay: Zymography of cell extracts, uPA activity, BME cells; conditions: 15 hours, serum-free
Description: (§1) Confluent monolayers of BME or BAE cells in 35mm gelatin-coated tissue culture dishes were washed twice with serum-free medium, and were treated with (±)-8-Prenylnaringenin in the absence or presence of bFGF or VEGF in serum-free medium containing Trasylol (200 Kallikrein Inhibitory Units/ml). 15 hours later, cell extracts were prepared and analyzed by zymography and reverse zymography as previously described (Vassalli et al., 1984, J. Exp. Med. 159: 1653-1668).
(§2) Cell extracts (CE) and culture supernatants (Sup) prepared from BME cells incubated with (±)-8-prenylnaringenin at the indicated concentrations in the absence or presence of bFGF (10ng/ml) for 15 hours, were subjected to zymography (uPA, tPA and tPA/PAI-1 complex activities) and reverse zymography (PAI-1 activity)

[4] = test system: tPA; assay: Zymography of cell extracts, tPA activity, BME cells
Description: as §1, §2

[5] = test system: PAI-1; assay: Reverse zymography, PAI-1 activity, BME cells; conditions: 15 hours, serum-free
Description: as §1, §2

[6] = test system: uPA; assay: Zymography of cell extracts, uPA activity, BAE cells
Description: as §1
as §2, with “BAE” for “BME”, “(3ng/ml)” for “(10ng/ml)”, “activity). The second panel marked CE is a longer incubation of the gel shown in the top panel.” for “activity)”

[7] = test system: tPA; assay: Zymography of cell extracts, tPA activity, BAE cells
Description: as §1
as §2, with “BAE” for “BME”, “(3ng/ml)” for “(10ng/ml)”, “activity). The second panel marked CE is a longer incubation of the gel shown in the top panel.” for “activity)”

[8] = test system: PAI-1; assay: Reverse zymography, PAI-1 activity, BAE cells
Description: as §1
as §2, with “BAE” for “BME”, “(3ng/ml)” for “(10ng/ml)”, “activity). The second panel marked CE is a longer incubation of the gel shown in the top panel.” for “activity)”

[9] = test system: uPA mRNA; assay: Northern blot analysis, uPA mRNA, BME cells; conditions: 10µM, after 9 hours
Description: (§3) (±)-8-Prenylnaringenin or genistein were added to confluent BME cell monolayers to which fresh medium containing 5% DCS had been added 24 hours previously. Total cellular RNA was prepared after the indicated times using Trizol reagent (Life Technologies AG, Basel, Switzrland) according to the manufacturer's instructions. Northern blots, UV cross-linking and methylene blue staining of filters, in vitro transcription, hybridization and post-hybridization washes were as previously described (Pepper et al., 1990, J. Cell Biol. 111: 743-755). […] Autoradiograms were scanned and quantitated using ImageQuant (Molecular Dynamics, Sunnyvale, CA).
(§4) Replicate filters containing total cellular RNA (5 µg/lane) prepared from confluent monolayers of BME cells incubated in the absence (Control) or presence of 10µM (±)-8-prenylnaringenin for the indicated times, were hybridized with ^32P-labelled cRNA probes. RNA integrity and uniformity of loading were determined by staining the filters with methylene blue after transfer and cross-linking (lower panel of the figure); 28S and 18S ribosomal RNAs are shown.

[10] = test system: uPAR mRNA; assay: Northern blot analysis, uPAR mRNA, BME cells; conditions: 10µM, after 9 hours
Description: as §3, §4

[11] = test system: tPA mRNA; assay: Northern blot analysis, tPA mRNA, BME cells; conditions: 10µM, after 9 hours
Description: as §3, §4

[12] = test system: PAI-1 mRNA; assay: Northern blot analysis, PAI-1 mRNA, BME cells
Description: (§5) (±)-8-Prenylnaringenin or genistein were added to confluent BME cell monolayers to which fresh medium containing 5% DCS had been added 24 hours previously. Total cellular RNA was prepared after the indicated times using Trizol reagent (Life Technologies AG, Basel, Switzrland) according to the manufacturer's instructions. Northern blots, UV cross-linking and methylene blue staining of filters, in vitro transcription, hybridization and post-hybridization washes were as previously described (Pepper et al., 1990, J. Cell Biol. 111: 743-755). [^32P]-labelled cRNA probes were prepared from bovine urokinase-type plasminogen activator (u-PA) (Krätzschmar et al., 1993, Gene 125: 177-183), bovine u-PA receptor (u-PAr) (Krätzschmar et al., 1993, Gene 125: 177-183), human tissue-type PA (t-PA) (Fisher et al., 1985, J. Biol. Chem. 260: 11223-11230) and bovine PA inhibitor-1 (PAI-1) (Pepper et al., 1990, J. Cell Biol. 111: 743-755) cDNAs as previously described (Pepper et al., 1990, J. Cell Biol. 111: 743-755). Filters were exposed to Kodak X-OMAT XAR-5 Scientific Imaging Film (Eastman Kodak Co., Rochester, NY). Autoradiograms were scanned and quantitated using ImageQuant (Molecular Dynamics, Sunnyvale, CA).

[13] = test system: uPA mRNA; assay: Northern blot analysis, uPA mRNA, BAE cells
[14] = test system: uPAR mRNA; assay: Northern blot analysis, uPAR mRNA, BAE cells
Description: as §5

[15] = test system: tPA; assay: Northern blot analysis, tPA mRNA, BAE cells; conditions: after 24 hours
[16] = test system: BME cells; assay: Toxicity observed in BME cell cultures

## CC(C)=CCc1c(O)cc(O)c2c1OC(c1ccc(O)cc1)CC2=O (racemic) [8-Prenylnaringenin, 5,7-Dihydroxy-2-(4-hydroxyphenyl)-8-(3-methylbut-2-enyl)-chroman-4-on]
[1]; BME cells, collagen gel
  in vitro angiogenesis induced by bFGF, VEGF or a combination of the bFGF and VEGF: inhibits
[1]; Bos taurus, induced by bFGF (10ng/ml), VEGF (30ng/ml) or both, irrespective of the angiogenic stimulus, read-out: IC50 of inhibition of BME cell invasion
  IC50: 3 to 10 µM
[2]; absence of bFGF
  inhibition at 30 µM: 67%
[2]; presence of bFGF (10ng/ml)
  inhibition at 30 µM: 75%
[2]; 120 h, 5 day assay, 5% DCS, with or without bFGF, read-out: IC50 of inhibition of BME cell proliferation (cell number)
  IC50: ~10 µM
[3]
  uPA activity: dose-dependent increase
[4]; 15 hours, serum-free
  tPA activity: dose-dependent increase
[4]; with VEGF, data not shown
  induction of tPA activity, combination with VEGF: synergize
[4]; with bFGF (10ng/ml)
  induction of tPA activity, effect of bFGF co-treatment: potentiates
[5]
  PAI-1 activity: reduction
[6]; 15 hours, serum-free
  uPA activity: increased
[6]; with bFGF (3ng/ml)
  bFGF-induced uPA activity: reduces
[7]; 15 hours, serum-free
  tPA activity: increased
[7]; with bFGF (3ng/ml)
  induction of tPA activity, effect of bFGF co-treatment: potentiates
[8]
  PAI-1: decrease
[9]
  uPA mRNA steady state level, maximal effect: 7.5 fold increase
[10]
  uPAR mRNA steady state level, maximal effect: 6.4 fold increase
[11]
  tPA mRNA steady state level, maximal effect: 9.6 fold increase
[12]
  levels of PAI-1 mRNA: no significant effect
[13]
  uPA mRNA levels: virtually no effect
[14]
  uPAR mRNA levels: virtually no effect
[15]
  tPA levels: 4.6 fold increase
[16]; 15 hours, absence of serum
  concentration at which frank toxicity was observed: 30 µM
[16]; presence of 2% serum
  concentration at which toxicity was seen: 100 µM
